# According to patent publication US20240034743A9, “TRICYCLIC COMPOUNDS AS EGFR INHIBITORS” (QILU PHARMACEUTICAL CO., LTD., priority 2020, published 2024):
# Read-outs that look alike come from different tables or passages of the source.
# How the values were obtained:
# [1] = molecular target: EGFR WT (wild type EGFR) (Homo sapiens (Human), UniProt P00533); assay: In vitro enzymatic TR-FRET (HTRF KinEASE-TK) kinase assay, EGFR WT; format: biochemical
# How it was run: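 IC50 derived from the 665/615 nm TR-FRET ratio after 1 h with streptavidin-XL665 and Cryptate-labelled TK antibody. Kinase reaction ran 40 min at room temperature with biotin-TK substrate and ATP, following 10 min compound–enzyme preincubation. Buffer: 5 mM MgCl2, 1 mM MnCl2, 1 mM DTT.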
# [2] = system: Ba/F3_Del19/T790M/C797S cells; assay: Ba/F3_Del19/T790M/C797S cell proliferation inhibition assay (CellTiter-Glo); format: cell-based; settings: Mus musculus
# How it was run: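 IC50 for growth inhibition came from CellTiter-Glo chemiluminescence after a 72 h, 37° C compound exposure. Ba/F3_Del19/T790M/C797S cells were plated at 700/well, and compound was dosed in gradient with 0.1% final DMSO.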
# [3] = system: A431 cells (EGFR WT); assay: A431 cell proliferation inhibition assay (CellTiter-Glo); format: cell-based; settings: Homo sapiens
# How it was run: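 CellTiter-Glo luminescence quantified growth after 72 h treatment with serially diluted compounds (final DMSO 0.1%), following a 24 h attachment period at 37° C, 5% CO2. Signal read after 30 min dark incubation at room temperature, with half-maximal growth inhibition reported as IC50.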
# [4] = system: Ba/F3_L858R/T790M/C797S cells; assay: Ba/F3_L858R/T790M/C797S cell proliferation inhibition assay (CellTiter-Glo); format: cell-based; settings: Mus musculus
# How it was run: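 Proliferation IC50 derived from CellTiter-Glo luminescence in Ba/F3 cells expressing triple-mutant EGFR (L858R/T790M/C797S). Cells (700/well) incubated 72 h with graded compound doses at 0.1% DMSO final, 37 °C, 5% CO2; reagent developed 30 min at room temperature in the dark.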
# [5] = kinase activity, TR-FRET, read-out: EGFR (WT) IC50
# [6] = BaF3, cell proliferation, 72 h, CellTiter-Glo, read-out: Ba/F3 (Del19/T790M/C797S) IC50
# [7] = A-431, cell proliferation, 72 h, CellTiter-Glo, read-out: A431 EGFR WT IC50
# [8] = BaF3, cell proliferation, 72 h, CellTiter-Glo, read-out: Ba/F3 (L858R/T790M/C797S) IC50
# [9] = BaF3, 72 h, read-out: Ba/F3 (Del19/T790M/C797S) IC50(nM)
# [10] = A-431, 72 h, read-out: A431 EGFR WT IC50(nM)
# [11] = BaF3, 72 h, read-out: Ba/F3 (L858R/T790M/C797S) IC50(nM)
# EGFR WT (wild type EGFR), sequence (P00533 25-1210): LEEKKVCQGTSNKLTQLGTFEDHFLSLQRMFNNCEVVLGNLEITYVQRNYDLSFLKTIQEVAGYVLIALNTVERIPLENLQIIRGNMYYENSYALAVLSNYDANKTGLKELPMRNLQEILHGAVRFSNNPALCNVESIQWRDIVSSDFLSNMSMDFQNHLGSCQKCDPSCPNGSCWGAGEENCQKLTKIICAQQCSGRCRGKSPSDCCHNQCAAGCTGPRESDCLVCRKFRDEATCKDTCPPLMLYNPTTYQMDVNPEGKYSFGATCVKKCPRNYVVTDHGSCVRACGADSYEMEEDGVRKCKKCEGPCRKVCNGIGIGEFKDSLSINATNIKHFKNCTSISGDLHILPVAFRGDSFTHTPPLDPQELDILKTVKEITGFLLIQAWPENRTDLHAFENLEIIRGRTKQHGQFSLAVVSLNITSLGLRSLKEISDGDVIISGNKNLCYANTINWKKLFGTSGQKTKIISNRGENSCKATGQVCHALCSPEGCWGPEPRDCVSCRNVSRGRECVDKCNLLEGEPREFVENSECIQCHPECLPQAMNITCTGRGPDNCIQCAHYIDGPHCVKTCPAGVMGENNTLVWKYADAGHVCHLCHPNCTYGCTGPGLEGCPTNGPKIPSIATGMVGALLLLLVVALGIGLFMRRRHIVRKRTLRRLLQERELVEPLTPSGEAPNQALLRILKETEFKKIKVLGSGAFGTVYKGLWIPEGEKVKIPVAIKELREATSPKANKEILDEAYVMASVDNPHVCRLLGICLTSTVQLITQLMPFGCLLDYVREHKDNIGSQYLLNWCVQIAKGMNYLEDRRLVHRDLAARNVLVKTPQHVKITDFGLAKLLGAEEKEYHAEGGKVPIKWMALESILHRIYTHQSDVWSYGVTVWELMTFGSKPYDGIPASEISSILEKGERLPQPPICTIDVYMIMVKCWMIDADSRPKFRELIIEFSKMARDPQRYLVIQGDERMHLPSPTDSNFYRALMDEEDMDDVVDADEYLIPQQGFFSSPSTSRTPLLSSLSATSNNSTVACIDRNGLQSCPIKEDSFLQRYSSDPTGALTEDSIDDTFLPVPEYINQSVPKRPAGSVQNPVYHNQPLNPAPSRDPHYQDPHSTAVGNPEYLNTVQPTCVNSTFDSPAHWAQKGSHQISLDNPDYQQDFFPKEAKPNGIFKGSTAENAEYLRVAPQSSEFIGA
Compound,"IC50 [1, 5] [µM]","IC50 [2, 6] [nM]","IC50 [3, 7] [nM]","IC50 [4, 8] [nM]",IC50 [1] [µM],"IC50 [2, 9] [nM]","IC50 [3, 10] [nM]","IC50 [4, 11] [nM]"
COc1cc2c(cc1Nc1ncc(Br)c(Nc3ccccc3P(C)(C)=O)n1)-c1cnn(C)c1CC=C2 [Compound 40],0.01 to 0.05,< 10,100 to 1000,10 to 50,–,–,–,–
COc1cc2c(cc1Nc1ncc(Br)c(Nc3ccc4nccnc4c3P(C)(C)=O)n1)-c1cnn(C)c1CN(C)C2=O [Compound 9],0.01 to 0.05,10 to 50,100 to 1000,10 to 50,–,–,–,–
COc1nc2c(cc1Nc1ncc(Br)c(Nc3ccccc3P(C)(C)=O)n1)-c1cnn(C)c1CCN2 [Compound 51],0.01 to 0.05,< 10,100 to 1000,10 to 50,–,–,–,–
COc1cc2c(cc1Nc1ncc(Br)c(Nc3ccccc3P(C)(C)=O)n1)-c1scnc1CCN2C [Compound 42],0.001 to 0.01,< 10,100 to 1000,< 10,–,–,–,–
COc1cc2c(cc1Nc1ncc(Br)c(Nc3ccc4nccnc4c3P(C)(C)=O)n1)-c1cnn(C)c1CCN2C(C)C [Compound 6],0.001 to 0.01,< 10,100 to 1000,< 10,–,–,–,–
COc1cc2c(cc1Nc1ncc(Br)c(Nc3ccc4nccnc4c3P(C)(C)=O)n1)-c1cnn(C)c1CNC2 [Compound 71],0.001 to 0.01,< 10,50 to 100,< 10,–,–,–,–
COc1cc2c(cc1Nc1ncc(Br)c(Nc3ccccc3P(C)(C)=S)n1)-c1cnn(C)c1CCN2C1CCN(C(C)C)CC1 [Compound 105],–,–,–,–,0.001 to 0.01,< 10,100 to 1000,10 to 50
COc1cc2c(cc1Nc1ncc(C)c(Nc3ccc4nccnc4c3NS(C)(=O)=O)n1)-c1cnn(C)c1CCN2C(C)C [Compound 104],0.001 to 0.01,< 10,100 to 1000,< 10,–,–,–,–
COc1cc2c(cc1Nc1nc(Nc3ccccc3P(C)(C)=O)c3sccc3n1)-c1cnn(C)c1CCN2C [Compound 58],0.01 to 0.05,10 to 50,> 1000,10 to 50,–,–,–,–
COc1cc2c(cc1Nc1ncc(Br)c(Nc3ccccc3P(C)(C)=O)n1)-c1cnn(C)c1CCN2C1CCN(C)CC1 [Compound 47],0.001 to 0.01,< 10,50 to 100,10 to 50,–,–,–,–
CNC(=O)c1c(Nc2nc(Nc3cc4c(cc3OC)N(C(C)C)CCc3c-4cnn3C)ncc2Br)ccc2nccnc12 [Compound 129],0.001 to 0.01,10 to 50,100 to 1000,10 to 50,–,–,–,–
COc1cc2c(cc1Nc1ncc(Br)c(Nc3ccc4nccnc4c3P(C)(C)=O)n1)-c1cnn(C)c1CCN2 [Compound 16],0.001 to 0.01,–,–,–,–,< 10,50 to 100,< 10
COc1cc2c(cc1Nc1ncc(Br)c(Nc3ccc4nccnc4c3P(C)(C)=O)n1)-c1cnn(C)c1CC(O)C2 (stereo not drawn) [Compound 31],0.001 to 0.01,< 10,100 to 1000,10 to 50,–,–,–,–
COc1cc2c(cc1Nc1ncc(Br)c(Nc3ccccc3P(C)(C)=S)n1)-c1cnn(C)c1CCN2C1CCN(C)CC1 [Compound 101],–,–,–,–,0.001 to 0.01,< 10,100 to 1000,< 10
COc1nc2c(cc1Nc1ncc(Br)c(Nc3ccc4nccnc4c3NS(C)(=O)=O)n1)-c1cnn(C)c1CCN2 [Compound 81],0.001 to 0.01,< 10,100 to 1000,< 10,–,–,–,–
